System: Male CD-1 mice
Assay: Calcium-induced arrhythmia model (time to AV block after CaCl2 infusion)
Format: in vivo
Conditions: compound IV 3 min before CaCl2 infusion (100 mg/kg/min), saline control 62-78
Description: Peptides suitable for administration to cardiac cells can be identified in an in vivo model of calcium-induced arrhythmias according to the model of Lynch et al. (1981) J Cardiovasc. Pharmacol. 3: 49-60. Male CD-1 mice are anaesthetized with Ketamine (75 mg/kg) and medetomidine (1 mg/kg) IP. An i.v. cannula is inserted into the tail vein. A lead II ECG signal is recorded continuously by positioning stainless steel ECG electrodes on the right forelimb and […]. The ground electrode is placed on the right hind limb. The signal is amplified and filtered using Gould physiograph components and po-ne-mah data acquisition software. After a 90 sec equilibration period test compound is injected into the tail vein (over 30 seconds). Mice pre-treated with vehicle are tested as control animals. The injection volume is 100 μl/30 g mice in all experiments. Infusion of CaCl2 (30 mg/mL, 0.1 mL/min/30 g mice, 100 mg/kg/min) is started 3 min after IV administration of drug or vehicle (0.9% saline). The time lag to onset of cardiac conduction block is determined as the time from the start of CaCl2 infusion until the first arrhythmic event occurred. The first conduction block is defined as the first RR-interval, larger than or equal to 3 times one RR-interval from the pre-treatment period. The first arrhythmic event occurring is either a second degree AV-block (intermittent failure of the AV conduction characterized by a P-wave without the concomitant QRS complex) or a second degree SA block (prolonged RR-interval and a QRS-complex without a preceding P-wave). Responses are expressed relative to the time until 2nd degree AV-block occurred in vehicle treated mice.
The anti-arrhythmic effect of compounds according to the present teachings was tested in a model of calcium-induced arrhythmias according to the model of Lynch et al., J. Cardiovasc. Pharmacol. (1981), 3: 49-60. Male CD-1 mice were anaesthetized with Ketamine (75 mg/kg) and medetomidine (1 mg/kg) IP. An i.v. cannula was inserted into the tail vein. A lead II ECG signal was recorded continuously by positioning stainless steel ECG electrodes on the right forelimb and […]. The ground electrode was placed on the right hind limb. The signal was amplified and filtered using Gould physiograph components and po-ne-mah data acquisition software. After a 90 sec equilibration period test compound was injected into the tail vein (over 30 seconds). Mice pre-treated with vehicle (0.9% saline) were tested as control animals. The injection volume was 100 μl/30 g mice in all experiments. Infusion of CaCl2 (30 mg/mL, 0.1 mL/min/30 g mice, 100 mg/kg/min) was started 3 min after IV administration of drug or vehicle. The time lag to onset of cardiac conduction block was determined as the time from the start of CaCl2 infusion until the first arrhythmic event occurred. The first conduction block was defined as the first RR-interval, larger/or equal to, 3 times one RR-interval from the pre-treatment period. The first arrhythmic event occurring was either a second degree AV-block (intermittent failure of the AV conduction characterized by a P-wave without the concomitant QRS complex) or a second degree SA block (prolonged RR-interval and a QRS-complex without a preceding P-wave).
Mice pre-treated with vehicle (0.9% saline) were tested on all days as a measure for control level in untreated animal. Injection volume was 100 μL in all experiments. The time lag to onset of arrhythmias was determined as the time from the start of CaCl2 infusion until the first event of conduction block defined as intermittent failure of the SA or AV conduction characterized by delayed P-wave activation (SA block) or by a P-wave without the concomitant QRS complex (AV block). The time lag to onset of AV block is given below in Table 2.

## NCC(=O)N1C[C@H](NC(=O)c2ccccc2)C[C@H]1C(=O)O [Compound 2, (2S4R)1-(2-Amino-acetyl)-4-benzoylamino-pyrrolidine-2-carboxylic acid]
  Time to AV block: 134.7 s

Reference: US8431540B2, “Modified lysine-mimetic compounds” (Zealand Pharma A/S, priority 2005, dated 2013)
